Source: paper PMC7384767 (Journal of natural products, 2020)

Test system: M. tuberculosis H37Rv
Experiment: Microplate Alamar Blue assay
Type: cell-based
Conditions: result in words

C=CC(C)(C)n1cc(C[C@@H]2NC(=O)[C@H](CC(C)C)N(C)C2=O)c2ccccc21 [Compound 9, rufomyazine]
anti-TB activity: did not show anti-TB activity
